Tested on: HLCM-HHs
Format: cell-based, human
Settings: 7 days
Method: As described in our previous publication (Tateno 2015), humanized liver chimeric mice (HLCM) were generated through xenotransplantation of cryopreserved or freshly isolated primary human hepatocytes (Lot:JFC, BioIVT, NY, US) into severe […] immune deficient (SCID) mice carrying a albumin enhancer/promoter-driven transgene (cDNA), urokinase type plasminogen activator, namely cDNA-uPA Tg/SCID). HLCM with blood human albumin level higher than 10 mg/mL were used for human hepatocyte isolation with two-step collagenase perfusion. The freshly isolated HLCM derived human hepatocytes (HLCM-HH) were plated on type I collagen coated culture dishes (BioCoat, Corning, NY, USA) at 1.05×10^5 cells/cm^2. […]
Total RNA was extracted with Zymo-Quick RNA micro kit (Zymo Research, CA, USA) according to the provider's protocol. […] Real-time quantitative PCR was performed with PowerUp SYBR Green Master Mix (ThermoFisher Scientific, MA, USA) and QuantStudio 5 systems (ThermoFisher Scientific) using human specific primer sets summarized in the Table 4. Relative gene expression levels were analyzed with the Delta-Dleta Ct method.

Fibrinogen
expression of cholangiocyte/liver progenitor cell markers, TGFB2 and ANKRD1 (INVITROGRO HI (IH) and HCM media with or without fibrinogen 50 μg/mL): significantly inhibited | expressions of cholangiocyte/liver progenitor cell markers (TGFB1, TGFB2, ANKRD1, KRT19) (supplemented to fresh dHCGM at 50 μg/mL, vs dHCGM alone, qPCR): significantly inhibited
